According to ChEMBL document CHEMBL5303573, “Mapping human microbiome drug metabolism by gut bacteria and their genes” (Nature, 2019):

Legend:
[1] = The drug is tested on Bifidobacterium breve strain: DSM20213 for biotransformation. The drug concentrations were measured before and after a 12-h incubation by liquid-chromatography-coupled mass spectrometry (LC–MS); settings: 2 µM
[2] = The drug is tested on Bifidobacterium ruminantium strain: fecal isolate for biotransformation. The drug concentrations were measured before and after a 12-h incubation by liquid-chromatography-coupled mass spectrometry (LC–MS); settings: 2 µM
[3] = The drug is tested on Bacteroides caccae strain: ATCC43185 for biotransformation. The drug concentrations were measured before and after a 12-h incubation by liquid-chromatography-coupled mass spectrometry (LC–MS); settings: 2 µM
[4] = The drug is tested on Bacteroides uniformis strain: ATCC8492 for biotransformation. The drug concentrations were measured before and after a 12-h incubation by liquid-chromatography-coupled mass spectrometry (LC–MS); settings: 2 µM
[5] = The drug is tested on Bacteroides vulgatus strain: ATCC8482 for biotransformation. The drug concentrations were measured before and after a 12-h incubation by liquid-chromatography-coupled mass spectrometry (LC–MS); settings: phocaeicola vulgatus, 2 µM
[6] = The drug is tested on Bacteroides sp. WH2 strain: WH2 for biotransformation. The drug concentrations were measured before and after a 12-h incubation by liquid-chromatography-coupled mass spectrometry (LC–MS); settings: bacteroides sp. wh2, 12 h, 2 µM
[7] = The drug is tested on Blautia luti strain: DSM14534 for biotransformation. The drug concentrations were measured before and after a 12-h incubation by liquid-chromatography-coupled mass spectrometry (LC–MS); type: ADME; design: dose 2 uM, timepoint 0 vs 12 hours; settings: 2 µM
[8] = The drug is tested on Providencia rettgeri strain: DSM1131 for biotransformation. The drug concentrations were measured before and after a 12-h incubation by liquid-chromatography-coupled mass spectrometry (LC–MS); type: ADME; design: dose 2 uM, timepoint 0 vs 12 hours; settings: 2 µM
[9] = bacteroides eggerthii, 12 h, 2 µM
Description: The drug is tested on Bacteroides eggerthii strain: DSM20697 for biotransformation. The drug concentrations were measured before and after a 12-h incubation by liquid-chromatography-coupled mass spectrometry (LC–MS)

[10] = bacteroides fragilis, 12 h, 2 µM
Description: The drug is tested on Bacteroides fragilis strain: NCTC 9343 for biotransformation. The drug concentrations were measured before and after a 12-h incubation by liquid-chromatography-coupled mass spectrometry (LC–MS)

[11] = bacteroides stercoris, 12 h, 2 µM
Description: The drug is tested on Bacteroides stercoris strain: ATCC43183 for biotransformation. The drug concentrations were measured before and after a 12-h incubation by liquid-chromatography-coupled mass spectrometry (LC–MS)

[12] = limosilactobacillus reuteri cf48-3a, 12 h, 2 µM
Description: The drug is tested on Lactobacillus reuteri CF48-3A strain: BEI HM-102 for biotransformation. The drug concentrations were measured before and after a 12-h incubation by liquid-chromatography-coupled mass spectrometry (LC–MS)

[13] = akkermansia muciniphila, 12 h, 2 µM
Description: The drug is tested on Akkermansia muciniphila strain: ATCC BAA-835 for biotransformation. The drug concentrations were measured before and after a 12-h incubation by liquid-chromatography-coupled mass spectrometry (LC–MS)

[14] = The drug is tested on Parabacteroides merdae strain: ATCC43184 for biotransformation. The drug concentrations were measured before and after a 12-h incubation by liquid-chromatography-coupled mass spectrometry (LC–MS); settings: 2 µM
[15] = The drug is tested on Clostridium sporogenes strain: ATCC15579 for biotransformation. The drug concentrations were measured before and after a 12-h incubation by liquid-chromatography-coupled mass spectrometry (LC–MS); settings: 2 µM
[16] = The drug is tested on Clostridium symbiosum strain: ATCC14940 for biotransformation. The drug concentrations were measured before and after a 12-h incubation by liquid-chromatography-coupled mass spectrometry (LC–MS); settings: 2 µM
[17] = The drug is tested on Edwardsiella tarda strain: ATCC23685 for biotransformation. The drug concentrations were measured before and after a 12-h incubation by liquid-chromatography-coupled mass spectrometry (LC–MS); settings: 2 µM
[18] = bacteroides fragilis, 12 h, 2 µM; remark: listed apart in the source
Description: The drug is tested on Bacteroides fragilis strain: DS-208 for biotransformation. The drug concentrations were measured before and after a 12-h incubation by liquid-chromatography-coupled mass spectrometry (LC–MS)

[19] = parabacteroides johnsonii, 12 h, 2 µM
Description: The drug is tested on Parabacteroides johnsonii strain: DSM18315 for biotransformation. The drug concentrations were measured before and after a 12-h incubation by liquid-chromatography-coupled mass spectrometry (LC–MS)

| SMILES | Bacterial Biotransformation [1] | Bacterial Biotransformation [2] | Bacterial Biotransformation [3] | Bacterial Biotransformation [4] | Bacterial Biotransformation [5] | Bacterial Biotransformation [6] | Bacterial Biotransformation [7] | Bacterial Biotransformation [8] | Bacterial Biotransformation [9] | Bacterial Biotransformation [10] | Bacterial Biotransformation [11] | Bacterial Biotransformation [12] | Bacterial Biotransformation [13] | Bacterial Biotransformation [14] | Bacterial Biotransformation [15] | Bacterial Biotransformation [16] | Bacterial Biotransformation [17] | Bacterial Biotransformation [18] | Bacterial Biotransformation [19] |
| --- | --- | --- | --- | --- | --- | --- | --- | --- | --- | --- | --- | --- | --- | --- | --- | --- | --- | --- | --- |
| CN1[C@@H]2CC[C@H]1C[C@@H](OC(=O)C(CO)c1ccccc1)C2 (some centres not stated) [ATROPINE] | Compound NOT metabolized | Compound NOT metabolized | Compound NOT metabolized | Compound NOT metabolized | Compound NOT metabolized | Compound NOT metabolized | Compound NOT metabolized | Compound NOT metabolized | Compound NOT metabolized | Compound NOT metabolized | Compound NOT metabolized | Compound NOT metabolized | Compound NOT metabolized |  |  |  |  |  |  |
| COc1ccc([C@@H]2Sc3ccccc3N(CCN(C)C)C(=O)[C@@H]2OC(C)=O)cc1 [DILTIAZEM] | Compound NOT metabolized | Compound NOT metabolized | Compound metabolized | Compound metabolized | Compound metabolized | Compound metabolized | Compound NOT metabolized |  | Compound NOT metabolized | Compound metabolized |  |  | Compound metabolized | Compound metabolized | Compound NOT metabolized | Compound metabolized | Compound NOT metabolized | Compound NOT metabolized | Compound metabolized |
| CN(C)CCC=C1c2ccccc2COc2ccccc21 [DOXEPIN] | Compound NOT metabolized | Compound NOT metabolized | Compound NOT metabolized | Compound NOT metabolized |  | Compound NOT metabolized | Compound NOT metabolized |  | Compound NOT metabolized |  | Compound NOT metabolized |  |  | Compound NOT metabolized | Compound NOT metabolized | Compound NOT metabolized | Compound NOT metabolized | Compound NOT metabolized | Compound NOT metabolized |
| CC(C)(C)NC(=O)[C@H]1CC[C@H]2[C@@H]3CC[C@H]4NC(=O)C=C[C@]4(C)[C@H]3CC[C@]12C [FINASTERIDE] | Compound NOT metabolized | Compound NOT metabolized | Compound NOT metabolized | Compound metabolized | Compound metabolized | Compound NOT metabolized | Compound NOT metabolized |  | Compound metabolized | Compound metabolized | Compound NOT metabolized | Compound NOT metabolized | Compound metabolized | Compound NOT metabolized | Compound NOT metabolized | Compound NOT metabolized | Compound NOT metabolized | Compound metabolized |  |
| COCCCC/C(=N\OCCN)c1ccc(C(F)(F)F)cc1.O=C(O)/C=C\C(=O)O [FLUVOXAMINE MALEATE] | Compound NOT metabolized | Compound metabolized | Compound NOT metabolized | Compound NOT metabolized | Compound metabolized | Compound NOT metabolized | Compound NOT metabolized | Compound NOT metabolized | Compound NOT metabolized |  |  | Compound NOT metabolized |  |  |  | Compound NOT metabolized | Compound NOT metabolized |  | Compound NOT metabolized |
| O=C(CCCN1CCC(O)(c2ccc(Cl)cc2)CC1)c1ccc(F)cc1 [HALOPERIDOL] | Compound NOT metabolized | Compound NOT metabolized | Compound NOT metabolized |  | Compound NOT metabolized | Compound NOT metabolized | Compound NOT metabolized | Compound NOT metabolized | Compound NOT metabolized | Compound NOT metabolized | Compound NOT metabolized | Compound NOT metabolized | Compound NOT metabolized | Compound NOT metabolized | Compound NOT metabolized | Compound NOT metabolized | Compound NOT metabolized | Compound NOT metabolized |  |
| Cc1ccc(NC(=O)c2ccc(CN3CCN(C)CC3)cc2)cc1Nc1nccc(-c2cccnc2)n1 [IMATINIB] | Compound NOT metabolized | Compound NOT metabolized | Compound NOT metabolized | Compound NOT metabolized | Compound metabolized | Compound NOT metabolized | Compound NOT metabolized |  | Compound NOT metabolized |  | Compound NOT metabolized |  | Compound NOT metabolized | Compound NOT metabolized |  |  | Compound NOT metabolized | Compound NOT metabolized | Compound NOT metabolized |
| CN1CCOC(c2ccccc2)c2ccccc2C1 (configuration not stated) [NEFOPAM] | Compound NOT metabolized | Compound NOT metabolized | Compound NOT metabolized |  |  | Compound NOT metabolized | Compound NOT metabolized | Compound NOT metabolized | Compound NOT metabolized | Compound NOT metabolized | Compound NOT metabolized | Compound NOT metabolized |  | Compound NOT metabolized |  | Compound NOT metabolized | Compound NOT metabolized | Compound NOT metabolized | Compound NOT metabolized |
| O=C(O)CCc1nc(-c2ccccc2)c(-c2ccccc2)o1 [OXAPROZIN] | Compound NOT metabolized | Compound metabolized |  | Compound metabolized | Compound metabolized | Compound metabolized | Compound NOT metabolized | Compound NOT metabolized | Compound NOT metabolized | Compound metabolized | Compound NOT metabolized | Compound NOT metabolized |  | Compound NOT metabolized | Compound NOT metabolized | Compound NOT metabolized | Compound NOT metabolized | Compound metabolized | Compound metabolized |
| CCN(CC)CC#CCOC(=O)C(O)(c1ccccc1)C1CCCCC1.Cl (configuration not stated) [OXYBUTYNIN CHLORIDE] | Compound NOT metabolized | Compound metabolized | Compound NOT metabolized | Compound metabolized | Compound metabolized | Compound NOT metabolized | Compound metabolized | Compound NOT metabolized |  |  | Compound NOT metabolized | Compound NOT metabolized |  | Compound NOT metabolized | Compound NOT metabolized | Compound metabolized | Compound metabolized | Compound NOT metabolized | Compound NOT metabolized |
